Data on two molecules can be found in US8835433B2, “Optically pure diastereomers of 10-Propargyl-10-deazaaminopterin and methods of using same for the treatment of cancer” (Allos Therapeutics, Inc., priority 2010, dated 2014).

Data set [1] in a line: Pharmacokinetics in human (PDX-008, noncompartmental). The data set is classed as in vivo. The note with it: for Vd / clearance / half-life: human, plasma, intravenous; for half-life: read-out: t1/2 term. The procedure: Bioanalytical methods were developed and validated for quantitation of the 2 pralatrexate C10 diastereomers (PDX-10a and PDX-10b) in human, rat and dog plasma and urine. The basic bioanalytical method involves extraction of PDX-10a and PDX-10b from the matrix utilizing C18 solid-phase extraction (SPE) cartridges followed by derivatization (methylation with acetyl chloride) of the diastereomers for separation detection. The derivatized extracts are injected on a chiral high-performance liquid chromatography (HPLC) column for quantitation of each diastereomer by liquid chromatography-tandem mass spectrometry (LC/MS/MS). The lower limit of quantitation (LLOQ) for both diastereomers in plasma and urine matrices was 0.5 ng/mL.
In humans, PDX-10b clearance was approximately 50% lower for both renal clearance (CLren) and nonrenal clearance (CLnonren). The lower clearance and ˜2-fold lower volume of distribution at steady state (Vdss) of PDX-10b are likely responsible for the 2-fold higher plasma exposure of PDX-10b compared with PDX-10a that is observed in humans. However, the plasma concentration-time profiles for both diastereomers declined in parallel, and terminal elimination half-life (t1/2term) for both diastereomers was virtually identical. The biological cause for the observed stereoselectivity across species is unknown, but may be due to isomeric differences in plasma protein binding. Isomeric differences in tissue distribution and/or renal and hepatobiliary transport may contribute as well.

For data set [2], the system named is Type II collagen arthritis. The experiment in a line: Type II collagen arthritis mouse model. The note with it: DBA/1 mice, some / other components/aspects of the arthritis, Example 7. It counts as in vivo. The procedure: The study uses a mouse model of inflammatory disease that occurs in response to an antigenic challenge with Type II collagen according to method described in Nature, 283, 666-668 […]. DBA/1 mice are immunized with a suspension of fetal bovine Type II collagen (1 mg/ml) prepared in complete Freund's adjuvant. The primary injection is given using 0.1 ml of the collagen emulsion giving a total of 0.1 mg of Type II collagen per mouse. The animals are given a booster injection of Type II collagen (100 μg in 0.01M acetic acid) on day 21 by intraperitoneal injection.
The effect of methotrexate and test compounds racemic PDX, PDX-10a and PDX-10b on the extent of inflammation is determined by visual observation and by direct analysis of paw swelling using caliper measurements.

Data set [3] relates to MDA-MB-435 (melanoma) human tumor cell line. The data set is described as follows: MTS growth inhibition assay, MDA-MB-435. The data set is classed as cell-based. The note with it: 3 h treatment, 72 h recovery. The procedure: The agents PDX, PDX-10a, PDX-10b, were evaluated for growth inhibitory activity against, MDA-MB-435, SKBR-3 and NCI-H460 human tumor cell lines. Growth inhibition was measured by MTS assay following three hours of continuous treatment and a seventy-two hour recovery incubation. The purpose of these studies was to determine the cytotoxic activity of the compounds in the tumor cell lines studies studied.
Materials and Methods. Preparation of PDX-10a and PDX-10b was performed as discussed in Examples 1-2. The PDX compounds were diluted in dimethylsulfoxide (DMSO) at a concentration of 20 mM. From this solution a stock solution of 2 mM was made by dilution with phosphate-buffered saline (PBS). This 2 mM stock solution in 10% DMSO/90% PBS was used to make 2× concentrations of the titration series in cell growth medium which was added to the cell cultures in a 1:1 ratio to make 1× concentrations. Cell lines—The human tumor cell lines: MDA-MB-435 (melanoma), SKBR-3 (breast cancer) and NCI-H460 (lung cancer) were cultured in RPMI medium (RPMI; Nova Tech, Grand Island, N.Y.) containing ten percent dialyzed fetal bovine serum (FBS; Nova Tech). Once cells reached seventy percent confluency, they were trypsinized and resuspended in an alternate media (RPMI containing five percent dialyzed FBS (Hyclone, Logan, Utah). One day prior to treatment (Day 0), cultures were suspended at a concentration of 1−7.5×10^4 cell/ml and 100 μl aliquots were plated into each well of a 96-well microtiter plate at a final concentration of 1×10^3-7.5×10^3 cells/well. Cells were incubated for 24 hours at 37° C. prior to exposure with agents.
Test Agents—racemic PDX, and individual diastereomers PDX-10a and PDX-10b were prepared as described above. Cells were treated 24 hours after plating (Day 1) with vehicle (media) alone or the above test agents for three hours at concentrations between 3 μM and 10 μM.
Single Agent Pulse Studies—Treatment with test agents or standard agents (controls) was initiated 24 hours after plating cells (Day 1). Cells were incubated at 37° C. with each of the test agents or a “chemococktail” (positive control) consisting of 215 μM Etoposide, 20 μM Taxol, 38.5 nM Velcade at final concentration for three hours. Following treatment, drug was removed, growth media added, and cells incubated at 37° C. for 72 hours. Following incubation, the viable cell number was quantified by the MTS assay described below. Experiments were repeated twice at the same concentrations. Results from these studies were used to calculate an IC50 value (concentration of drug that inhibits cell growth by 50% of the vehicle) for each compound. IC50 values were generated with Prizm software.
MTS Assay—Cell viability was determined using the MTS assay. This colorimetric procedure measures conversion of the MTS reagent (a tetrazolium salt) to formazan by living cells. Formazan production was quantified by spectrophotometric measurement at 490 nm and is proportional to viable cell number. For these studies, cells were cultured and treated as listed above. At the end of the treatment, 20 μl MTS tetrazolium (1.9 mg/ml in PBS, pH 6.0) was added to the cells for 1 hour at 37° C. Absorbance (OD) values were measured using a Dynex HD microplate reader at a single wavelength of 490 nm.
Data Analysis—Data from each experiment was collected and expressed as OD490 versus the log10 of the test agent concentration. […]

[4] abbreviates: both sexes, 0.81 mg/kg, C1D1, calculated using average BW 85 kg, read-out: Vdss relative to BW.
[5] abbreviates: both sexes, 30 mg/m2, human, C1D1, 30 mg/m^2, range of the mean for males and females and for PDX-10a and PDX-10b, read-out: CLtot.
The mark [6] stands for this setting: both sexes, 30 mg/m2, human, C1D1, 30 mg/m^2, range of the mean for males and females and for PDX-10a and PDX-10b, read-out: Vdss.
Where [7] appears, read: both sexes, 30 mg/m2, human, C1D1, 30 mg/m^2, range of the mean for males and females and for PDX-10a and PDX-10b.
[8] abbreviates: both sexes, 30 mg/m2, human, C1D6 or C2D6, 30 mg/m^2, range of the mean for males and females and for PDX-10a and PDX-10b, read-out: CLtot.
The mark [9] stands for this setting: both sexes, 30 mg/m2, human, C1D6 or C2D6, 30 mg/m^2, range of the mean for males and females and for PDX-10a and PDX-10b, read-out: Vdss.
Setting [10] is: both sexes, 30 mg/m2, human, C1D6 or C2D6, 30 mg/m^2, range of the mean for males and females and for PDX-10a and PDX-10b.
The mark [11] stands for this setting: 0.81 mg/kg, C1D1, calculated using average BW 85 kg, read-out: CLtot relative to BW.
Setting [12] is: Homo sapiens, MDA-MB-435, MDA-MB-435 (melanoma).

Like-named read-outs stand apart in the source and are kept apart here.

On to `C#CC[C@@H](Cc1cnc2nc(N)nc(N)c2n1)c1ccc(C(=O)N[C@@H](CCC(=O)O)C(=O)O)cc1` (single isomer, unassigned) [PDX-10a], for which the Vd is 0.4 to 1.2 L/kg in data set [1] (setting [4]), 37 to 105 L in data set [1] (setting [6]) and 48 to 162 L in data set [1] (setting [9]). For the same molecule, the clearance in data set [1] (setting [5]) was 191 to 417 mL/min; in data set [1] (setting [8]) it was 227 to 495 mL/min; in data set [1] (setting [11]) it was 2 to 5 mL/min/kg. In addition, the half-life is 12 to 18 h in data set [1] (setting [7]) and 11 to 16 h in data set [1] (setting [10]). Besides, the “antiarthritic activity relative to racemate and other diastereomer” value in data set [2] is on record as “increased activity relative to racemic PDX and/or PDX-10b”. Moreover, in data set [3] (setting [12]), the midpoint of inhibition, the IC50, lay at 100 nM.
On to `C#CC[C@H](Cc1cnc2nc(N)nc(N)c2n1)c1ccc(C(=O)N[C@@H](CCC(=O)O)C(=O)O)cc1` (single isomer, unassigned) [PDX-10b], for which the Vd is 0.4 to 1.2 L/kg in data set [1] (setting [4]), 37 to 105 L in data set [1] (setting [6]) and 48 to 162 L in data set [1] (setting [9]). Besides, the clearance in data set [1] (setting [5]) is 191 to 417 mL/min; in data set [1] (setting [8]) it was 227 to 495 mL/min; in data set [1] (setting [11]), 2 to 5 mL/min/kg. Further, the half-life in data set [1] (setting [7]) lay in the range of 12 to 18 h; in data set [1] (setting [10]), 11 to 16 h. Also, in data set [1] (humans), the “higher plasma exposure compared with PDX-10a” value stood at 2 fold. For the same molecule, the “lower volume of distribution at steady state (Vdss) compared with PDX-10a” value in data set [1] (humans) is on record as ~2 fold. The “nonrenal clearance (CLnonren) lower compared with PDX-10a” value in data set [1] (humans) is on record as “approximately 50%”. Also, the “renal clearance (CLren) lower compared with PDX-10a” value in data set [1] (humans) is “approximately 50%”. For the same molecule, in data set [2], the “antiarthritic activity relative to racemate and other diastereomer” value is given as “increased activity relative to racemic PDX and/or PDX-10a”. Also, the IC50 in data set [3] (setting [12]) and in data set [3] (MDA-MB-435 (melanoma)) was 121 nM each time.
